Peptide text beside a SMILES is read from it.
Experiments:
[1] = as compared with the I type crystals; cited from earlier work
[2] = Crystal form conversion (I type to II type) on drying; assay type: physicochemical; details: irrespective of the drying method
[3] = drying at a high temperature; part readily converted to a diketopiperadine derivative; cited from earlier work
[4] = cited from earlier work
[5] = Solubility: duration till 1 g of Aspartame crystals in 500 ml distilled water was completely dissolved as visually observed; assay type: physicochemical; details: 1 g in 500 ml distilled water, 20° C., magnetic stirrer 200 r.p.m.; for Solubility (min) (duration till completely dissolved): Table 1; for Solubility (min.) (duration till completely dissolved): Table 2, dried at 50° C. then 70° C.
Description: In the Examples, the solubility of Aspartame crystals was determined by measuring the duration till 1 g of Aspartame crystals which was added to 500 ml of distilled water at 20° C., followed by stirring (by a magnetic stirrer at 200 r.p.m.), was completely dissolved as visually observed.

[6] = Ratio of I type crystals by X-ray diffraction specific peaks with calibration curve; assay type: physicochemical; details: peaks at 2θ 4.4° (I) and 5.0° (II)
Description: Then, the ratio of the I type crystals was determined by comparing the strength ratio of each sample with the calibration curve.

[7] = Dispersibility and solubility in water (general statements); assay type: physicochemical; details: as compared with the II type crystals
[8] = Table 2, dried at 50° C. then 70° C.

Solubility (min.) (duration till completely dissolved) [5] [min] | Ratio of I type crystals (%) [6, 8] [%] | Structure (SMILES) | other results
 |  | COC(=O)[C@H](Cc1ccccc1)NC(=O)[C@@H](N)CC(=O)O [Aspartame II type crystals, α-L-aspartyl-L-phenylalanine methyl ester] (H-Asp-Phe-OMe) | hygroscopicity [1]: low hygroscopicity; storage stability [1]: excellent storage stability
 |  | COC(=O)[C@H](Cc1ccccc1)NC(=O)[C@@H](N)CC(=O)O [Aspartame, α-L-aspartyl-L-phenylalanine methyl ester] (H-Asp-Phe-OMe) | water content till which the I type crystal form is maintained [2]: about 15 % by weight; stability at a high temperature [3]: not stable at a high temperature; dispersibility and solubility in water [4]: poor dispersibility and solubility in water
 |  | COC(=O)[C@H](Cc1ccccc1)NC(=O)[C@@H](N)CC(=O)O [Comparative Example 1, α-L-aspartyl-L-phenylalanine methyl ester] (H-Asp-Phe-OMe) | Solubility (min) (duration till completely dissolved) [5]: 13 to 14 min; Ratio of I type crystals (%) ([6]; Table 1): 25%
 |  | COC(=O)[C@H](Cc1ccccc1)NC(=O)[C@@H](N)CC(=O)O [Example 1, α-L-aspartyl-L-phenylalanine methyl ester] (H-Asp-Phe-OMe) | Solubility (min) (duration till completely dissolved) [5]: 5 to 6 min; Ratio of I type crystals (%) ([6]; Table 1): 98%
5 to 6 | 90 | COC(=O)[C@H](Cc1ccccc1)NC(=O)[C@@H](N)CC(=O)O [Example 2, α-L-aspartyl-L-phenylalanine methyl ester] (H-Asp-Phe-OMe) | 
5 to 6 | 100 | COC(=O)[C@H](Cc1ccccc1)NC(=O)[C@@H](N)CC(=O)O [Example 3, α-L-aspartyl-L-phenylalanine methyl ester] (H-Asp-Phe-OMe) | 
4 to 5 | 98 | COC(=O)[C@H](Cc1ccccc1)NC(=O)[C@@H](N)CC(=O)O [Example 4, α-L-aspartyl-L-phenylalanine methyl ester] (H-Asp-Phe-OMe) | 
4 to 5 | 100 | COC(=O)[C@H](Cc1ccccc1)NC(=O)[C@@H](N)CC(=O)O [Example 5, α-L-aspartyl-L-phenylalanine methyl ester] (H-Asp-Phe-OMe) | 
 |  | COC(=O)[C@H](Cc1ccccc1)NC(=O)[C@@H](N)CC(=O)O [I type crystals, α-L-aspartyl-L-phenylalanine methyl ester] (H-Asp-Phe-OMe) | solubility, I type versus II type crystals [7]: far superior in the solubility to the II type crystals
13 to 14 | 60 | COC(=O)[C@H](Cc1ccccc1)NC(=O)[C@@H](N)CC(=O)O [compound 2, α-L-aspartyl-L-phenylalanine methyl ester] (H-Asp-Phe-OMe) | 
15 to 16 | 51 | COC(=O)[C@H](Cc1ccccc1)NC(=O)[C@@H](N)CC(=O)O [compound 3, α-L-aspartyl-L-phenylalanine methyl ester] (H-Asp-Phe-OMe) | 
14 to 15 | 64 | COC(=O)[C@H](Cc1ccccc1)NC(=O)[C@@H](N)CC(=O)O [compound 4, α-L-aspartyl-L-phenylalanine methyl ester] (H-Asp-Phe-OMe) | 
7 to 8 | 78 | COC(=O)[C@H](Cc1ccccc1)NC(=O)[C@@H](N)CC(=O)O [compound 5, α-L-aspartyl-L-phenylalanine methyl ester] (H-Asp-Phe-OMe) | 

Source: patent US4810818A, “Process for producing alpha-aspartyl-l-phenylalanine methyl ester having an improved solubility” (Toyo Soda Manufacturing Co., Ltd, priority 1986, dated 1989)
